Assay results published in US10912740B2, “Treating hepatitis C with cannabidiol” (Vilotos Pharmaceuticals, Inc., priority 2017, dated 2021).
“Also recorded” adds a separate entry of the source.

How the values were obtained:
HBV = assay: Anti-hepatitis B assay: extracellular HBV DNA by TaqMan PCR from HepG2 2.2.15 cells; format: cell-based, Hepatitis B virus (wild-type ayw1 strain); settings: for Percentage virus inhibition: HBV, HepG2 2.2.15 cells, six days
Text: (§1) The pure cannabis cannabinoid CBD of FIG. 2 was subjected to a modified anti-hepatitis B assay. [Korba B E, Gerin J L, Use Of A Standardized Cell Culture Assay To Assess Activities Of Nucleoside Analogs Against Hepatitis B Virus Replication, Antiviral Res, 19:55-70 (1992); Korba B E, Milman G., A Cell Culture Assay For Compounds Which Inhibit Hepatitis B Virus Replication, Antiviral Res 1991; 15:217-28]. The modifications allowed use in real time quantitative polymerase chain reaction (PCR) (TaqMan) to measure extracellular HBV DNA copy number associated with virions released from HepG2 2.2.15 cells. The HepG2 2.2.15 cell line is a stable cell line producing high levels of the wild-type ayw1 strain of HBV. Antiviral compounds blocking any later step of viral replication such as transcription, translation, pregenomeencapsidation, reverse transcription, particle assembly, and release can be identified and characterized using this cell line. In brief, HepG2 2.2.15 cells are plated in 96-well microtiter plates. Only the interior wells were utilized to reduce “edge effects” observed during cell culture; the exterior wells were filled with complete medium to help minimize sample evaporation. After incubation with 5% CO2 atmosphere at 37° C. for 16-24 h, the confluent monolayer of HepG2 2.2.15 cells was washed and the medium was replaced with complete medium containing test compounds at a single concentration of 10 μM. Three days later, the culture medium was replaced with fresh medium and test compounds at a single concentration of 10 μM. Six days following the initial administration of the test compounds, the cell culture supernatant was collected, treated with pronase and DNAse, and then used in a real-time quantitative TaqMan PCR assay. Antiviral activity was determined by calculating the reduction in HBV DNA levels compared to untreated virus control samples. Compound cytotoxicity was determined using MTS (CellTiter 96 Reagent, Promega) to measure cell viability as described above.

hepatitis C virus = assay: Dose-response assay against hepatitis C virus (EC50); format: cell-based; settings: for EC50: Hepatitis C virus, read-out: ES50 (EC50 against hepatitis C virus)
Method: (§2) Huh7.5 cells are grown in Dulbecco's modified essential media (DMEM), 10% fetal bovine serum (FBS), 1% penicillin-streptomycin (pen-strep), 1% Non-essential amino acids (NEAA) in a 5% CO2 incubator at 37° C. Huh7.5 cells were seeded at 1×10^4 cells per well into 96-well plates according to Southern Research Institute standard format. The test article was serially diluted with DMEM plus 5% FBS. The diluted compound in the amount of 50 μl was mixed with equal volume of cell culture-derived HCV (HCVcc), then applied to appropriate wells in the plate. Human interferon alpha-2b (rIFNα-2b) was included as a positive control compound. After 72 hr incubation at 37° C., the cells were lysed for measurement of luciferase activity using Renilla Luciferase Assay System (Promega) according to manufacturer's instruction. The number of cells in each well were determined by CytoTox-1 reagent (Promega). Test articles were tested with 6 serial dilution in triplicate to derive, if applicable, IC50 and IC90 (concentration inhibiting HCVcc infectivity by 50% and 90%, respectively), TC50 (concentration decreasing cell viability by 50%) and SI (selective index: TC50/IC50) values. In the replicon assay, Sub-confluent cultures of the ET line were plated out into 96-well plates that are dedicated for the analysis of cell numbers (cytotoxicity) or antiviral activity and the next day drugs were added to the appropriate wells. Cells were processed 72 hours later when the cells were still sub-confluent. After six half-log serial dilutions of the compound, the applicable EC50 (concentration inhibiting HCV replicon by 50%), EC90 (concentration inhibiting HCV replicon by 90%), IC50 (concentration decreasing cell viability by […]) and SI (selective index: […]) values were derived. HCV replicon levels are assessed as replicon derived Luc activity. The toxic concentration of drug that reduced cell numbers was assessed by the CytoTox-1 cell proliferation assay (Promega), a fluorometric assay of cell numbers (and cytotoxicity). […]

HCVcc = assay: Anti hepatitis C activity assay: HCVcc infectivity in Huh7.5 cells, luciferase readout, single dose; format: cell-based, Hepatitis C virus
Method: as §2

[1] = Cytotoxicity (CytoTox-1 cell number) in the HCVcc assay; format: cell-based; settings: human, Huh7.5 cells infected with HCVcc; HCVcc assay, Huh7.5 cells; CBD at 10 μM
Method: (§3) Huh7.5 cells are grown in Dulbecco's modified essential media (DMEM), 10% fetal bovine serum (FBS), 1% penicillin-streptomycin (pen-strep), 1% Non-essential amino acids (NEAA) in a 5% CO2 incubator at 37° C. Huh7.5 cells were seeded at 1×10^4 cells per well into 96-well plates according to Southern Research Institute standard format. The test article was serially diluted with DMEM plus 5% FBS. The diluted compound in the amount of 50 μl was mixed with equal volume of cell culture-derived HCV (HCVcc), then applied to appropriate wells in the plate. Human interferon alpha-2b (rIFNα-2b) was included as a positive control compound. After 72 hr incubation at 37° C., the cells were lysed for measurement of luciferase activity using Renilla Luciferase Assay System (Promega) according to manufacturer's instruction. The number of cells in each well were determined by CytoTox-1 reagent (Promega). […] HCV replicon levels are assessed as replicon derived Luc activity. The toxic concentration of drug that reduced cell numbers was assessed by the CytoTox-1 cell proliferation assay (Promega), a fluorometric assay of cell numbers (and cytotoxicity). […]

Huh7.5 cells = assay: as above; format: cell-based; settings: cells used to culture HCV
Method: as §3

HepG2 2.2.15 cells = assay: Compound cytotoxicity (MTS cell viability) in the anti-hepatitis B assay; format: cell-based; settings: cells used to culture HBV
Text: as §1

[2] = as above; format: cell-based; settings: human, HepG2 2.2.15 cells (stable HBV-producing line), HBV assay, HepG2 2.2.15 cells
Text: as §1

[3] = Cytotoxicity (CC50) in the HCV dose-response assay; format: cell-based; settings: human, Huh7.5 cells
Method: as §3

| SMILES | Percentage virus inhibition (HBV; CBD at single dose 10 (title uM, row head pM)) [%] | Activity against HBV in vitro / inhibition of viral replication (in words) (HBV; in vitro, single-dose assay) | EC50 (hepatitis C virus) [µM] | Inhibition of the HCV virus in the dose-response assay (in words) (hepatitis C virus; dose-response assay (Table 2)) | Percentage virus inhibition (HCVcc; HCVcc, CBD at single concentration 10 μM, Huh7.5 cells, 72 hr, 10 µM) [%] | inhibition at 10 µM (HCVcc; Hepatitis C virus, Huh7.5, 72 h, HCVcc, CBD at single concentration 10 μM, Huh7.5 cells, 72 hr, read-out: Percentage virus inhibition) [%] | Activity against HCV in vitro / inhibition of viral replication (in words) (HCVcc; in vitro, single-dose assay) | cytotoxicity at 72 h, 10 µM [1] [%] | Toxicity against Huh7.5 cells (in words) (Huh7.5 cells) | Cytotoxicity against HepG2 2.2.15 cells (in words) (HepG2 2.2.15 cells) | cytotoxicity at 6 days, 10 µM ([2]; CBD at 10 (title uM, row head pM)) [%] | CC50 at 72 h [3] [µM] | Percentage virus inhibition (HBV; Lamivudine at 2 (row head pM)) [%] | cytotoxicity at 6 days, 2 µM (printed pM) ([2]; Lamivudine at 2 (row head pM)) [%] |
| --- | --- | --- | --- | --- | --- | --- | --- | --- | --- | --- | --- | --- | --- | --- |
| C=C(C)[C@@H]1CCC(C)=C[C@H]1c1c(O)cc(CCCCC)cc1O [CBD, Cannabidiol] | 0 | not against HBV; also recorded: not active | 3.16 | dose-dependent inhibition | 84.6 | 86.4 | active against HCV | 2.7 | minimal toxicity | significant cytotoxicity | 65.7 | 15.7 ± 0.25 |  |  |
| Nc1ccn([C@@H]2CS[C@H](CO)O2)c(=O)n1 [Lamivudine, reference compound] |  |  |  |  |  |  |  |  |  |  |  |  | 97.7 | 0 |
| CC(C)OC(=O)[C@H](C)N[P@](=O)(OC[C@H]1O[C@@H](n2ccc(=O)[nH]c2=O)[C@](C)(F)[C@@H]1O)Oc1ccccc1 [Sofosbuvir, reference compound] |  |  | 0.055 ± 0.0104 |  |  |  |  |  |  |  |  | > 10 |  |  |
